Measured values taken from patent US7595320B2, “Hydrazinocarbonyl-thieno[2,3-C]pyrazoles, process for preparing them, compositions containing them and use thereof” (Aventis Pharma S.A., priority 2005, dated 2009).

Key:
Assay type in all cases: biochemical
[1] = molecular target: T1, Aurora1 (Homo sapiens, UniProt Q96GD4); assay: Aurora1 enzymatic test, NuMA phosphorylation with [33P]ATP, Flashplate; settings: Aurora-B/INCENP-C3 recombinant complex, 1 μM ATP
T1 construct: His tag (N); made in house
T1 sequence (Q96GD4 whole entry, species assumed): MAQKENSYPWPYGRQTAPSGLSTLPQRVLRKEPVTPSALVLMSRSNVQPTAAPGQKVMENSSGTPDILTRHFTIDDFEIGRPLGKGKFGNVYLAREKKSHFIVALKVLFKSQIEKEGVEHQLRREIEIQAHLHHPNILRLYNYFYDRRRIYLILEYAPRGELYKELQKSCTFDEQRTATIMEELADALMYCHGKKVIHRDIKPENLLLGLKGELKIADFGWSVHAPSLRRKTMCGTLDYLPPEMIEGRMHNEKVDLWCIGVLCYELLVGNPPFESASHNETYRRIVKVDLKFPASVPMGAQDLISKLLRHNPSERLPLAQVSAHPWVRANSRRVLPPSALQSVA
T1 sequence (Q9NQS7 835-903 partner limits assumed, species assumed): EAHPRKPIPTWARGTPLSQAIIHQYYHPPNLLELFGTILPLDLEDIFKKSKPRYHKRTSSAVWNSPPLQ
Experimental: (§1) The inhibitory effect of compounds with respect to the kinases Aurora1 and Aurora2 is determined by means of an enzymatic test using radioactivity detection.
(§2) The kinase activity of Aurora1 and Aurora2 is evaluated via the phosphorylation of the substrate Numa-histidine in the presence of radiolabelled ATP ([^33P]ATP) using 96-well Flashplate plates in which the nickel chelate is bound to the surface of the microplate. The amount of ^33P phosphate incorporated into the NuMA substrate is proportional to the activity of the enzyme Aurora1 or Aurora2.
Aurora1: Aurora-B/INCENP-C3 recombinant complex, purified to about 50%, the N-terminal end of Aurora-B of which has been labeled with histidine.
(§3) NuMA (nuclear protein that combines with the mitotic apparatus): 424-amino acid fragment, expressed in E. coli, the N-terminal end of which has been labeled with histidine, and used as substrate for the two Aurora enzymes.
(§4) The microplates used are 96-well Flash-Plate plates, nickel chelate (Perkin-Elmer, model SMP107).
(§5) The products to be evaluated are incubated in a reaction volume of 100 μL per well, in the presence of 10 nM of Aurora1 or Aurora2, 500 nM of NuMA substrate in a buffer composed of 50 mM Tris/HCl (pH 7.5), 50 mM NaCl, 5 mM MgCl2 (Aurora-B) or 10 mM MgCl2 (Aurora-A) and 1 mM DTT, at 37° C.
(§6) 80 μL of enzyme/substrate incubation buffer are distributed in each well, followed by 10 μL of product to be evaluated, at variable concentrations. The reaction is initiated by adding 1 μM final of ATP containing 0.2 μCi of [^33P]ATP (10 μL). After incubating for 30 minutes, the reaction is quenched by simple removal of the reaction buffer and each well is washed twice with 300 μl of Tris/HCl buffer. The radioactivity is then measured in each well using a Packard, Top-Count model scintillation machine.
(§7) The control enzymatic activity of Aurora is expressed by the number of counts per minute obtained over 30 minutes after subtracting the background noise (reaction mixture containing no enzyme). The evaluation of the various test products is expressed as a percentage of inhibition of the Aurora activity relative to the control.

[2] = molecular target: T2, Aurora2 (Homo sapiens, UniProt O14965); assay: Aurora2 enzymatic test, NuMA phosphorylation with [33P]ATP, Flashplate; settings: whole recombinant protein, 1 μM ATP
T2 construct: Aurora2: whole recombinant protein comprising an N-terminal histidine tail; His tag (N); made in house; host or cells: E. coli
T2 sequence (O14965 1-403): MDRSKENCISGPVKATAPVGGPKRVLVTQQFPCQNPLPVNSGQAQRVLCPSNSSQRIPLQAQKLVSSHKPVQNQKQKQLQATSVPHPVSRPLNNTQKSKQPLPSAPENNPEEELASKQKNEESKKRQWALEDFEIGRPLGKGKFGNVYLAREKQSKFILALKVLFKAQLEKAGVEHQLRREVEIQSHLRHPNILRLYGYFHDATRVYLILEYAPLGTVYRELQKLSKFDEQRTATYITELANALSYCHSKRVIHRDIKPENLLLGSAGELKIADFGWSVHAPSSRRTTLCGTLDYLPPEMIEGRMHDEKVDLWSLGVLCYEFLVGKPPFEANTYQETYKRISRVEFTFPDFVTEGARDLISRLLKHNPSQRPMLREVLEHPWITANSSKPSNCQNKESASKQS
Experimental: as §1, §2
Aurora2: whole recombinant protein comprising an N-terminal histidine tail, was expressed in E. coli and purified to more than 82%.
as §3, §4, §5, §6, §7

[3] = molecular target: T3, CDK2/cycline E (Homo sapiens, UniProt P24941); assay: CDK2/cyclineE Flashplate test in 96-well format; settings: CDK2/cycline E complex, 1 μM ATP
T3 construct: made in house; host or cells: Sf21 insect cells (baculovirus coinfection)
Experimental: Two recombinant baculoviruses bearing the human sequences coding, respectively, for CDK2 and cyclineE (the latter bearing a C-terminal hexahistidine tag) are used to coinfect Sf21 insect cells. Two to three days after the start of coinfection, the cells are harvested by centrifugation and then stored at −40° C. until the time of use.
A format in streptavidin-coated 96-well plates is used to test the activity of the compounds on the kinase activity of CDK2/cycline E.
To perform this test, the biotinylated peptide substrate, a fragment of the protein pRb (biotinyl-[…]-OH), is dissolved at a concentration of 1 mM in kinase buffer (HEPES/NaOH 50 mM, NaCl 1 mM, MgCl2 5 mM, pH 7.5) in order to constitute a stock solution stored at −20° C. in the form of 110 μL aliquots. On the day of the experiment, an aliquot of this solution is thawed and diluted in kinase buffer containing 1 mM of dithiothreitol, added to the buffer extemporaneously, in order to obtain a concentration of 14.3 μM. 70 μL of this solution are added to each well of the Flashplate in order to obtain a final substrate concentration of 10 μM during the enzymatic reaction performed in a final volume of the reaction medium of 100 μL (cf. below).
Intermediate dilutions of inhibitors (products of the invention) at various concentrations are prepared in DMSO from stock solutions at 10 mM in separate tubes. Dilutions at 1000 μM, 333.3 μM, 111.1 μM, 37.03 μM, 12.35 μM, 4.11 μM and 1.37 μM are thus prepared. One μL of each of these solutions (or 1 μL of DMSO for the controls) is transferred into the wells of the test plate.
19 μl of a solution of a mixture of adenosine triphosphate (ATP) and of ATPγ^33P in kinase buffer at a total concentration of 5.26 μM of ATP and 52.6 μCi/ml of ^33P are then added to each well. The enzymatic reaction is initiated by adding 10 μL per well of a 200 nM solution of CDK2/cycline E in kinase buffer containing 1 mM of dithiothreitol (or 10 μL of kinase buffer containing 1 mM of dithiothreitol for the reaction blanks).
After addition of each of the reagents, the final volume of each well is 100 μL, the final concentration of substrate is 10 μM, the final inhibitor concentrations are 10 μM, 3.33 μM, 1.11 μM, 0.37 μM, 0.123 μM, 0.041 μM and 0.014 μM (according to the concentration of the intermediate dilution), the final ATP concentration is 1 μM, the final amount of ^33P is 1 μCi/well, and the final concentration of CDK2/cycline E complex is 20 nM.
After addition of all of the reagents, the test plate is incubated at 30° C. with orbital shaking at 650 rpm.
When the incubation is complete, the plate is washed three times with 300 μL per well of PBS (phosphate-buffered saline, pH=7.4, without calcium or magnesium, reference 10010-015, Gibco BRL). The incorporation of ^33P to the peptide is quantified by scintillation counting with a Packard Topcount.NXT machine.

[4] = molecular target: T4, Tie2 (Homo sapiens, UniProt Q02763); assay: Tie2 kinase test, phosphorylation of PLC with GST-Tie2; settings: GST-Tie2 intracellular domain 776-1124
T4 construct: amino acids of the intracellular domain 776-1124; made in house; host or cells: baculovirus expression (pFastBacGT vector)
T4 sequence (Q02763 776-1124): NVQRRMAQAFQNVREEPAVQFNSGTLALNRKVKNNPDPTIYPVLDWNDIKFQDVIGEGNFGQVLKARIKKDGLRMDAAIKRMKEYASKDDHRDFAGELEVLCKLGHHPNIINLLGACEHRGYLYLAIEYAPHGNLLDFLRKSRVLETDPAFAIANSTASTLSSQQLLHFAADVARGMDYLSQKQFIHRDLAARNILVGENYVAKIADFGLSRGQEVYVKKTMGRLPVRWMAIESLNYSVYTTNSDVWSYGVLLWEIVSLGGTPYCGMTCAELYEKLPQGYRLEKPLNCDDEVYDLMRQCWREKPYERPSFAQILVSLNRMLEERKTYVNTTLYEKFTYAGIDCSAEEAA
Experimental: The coding sequence of human Tie2 corresponding to the amino acids of the intracellular domain 776-1124 was generated by PCR using the cDNA isolated from a human placenta as a model. This sequence was introduced into a pFastBacGT baculovirus expression vector in the form of a GST fusion protein.
The inhibitory effect of the molecules is determined in a test of phosphorylation of PLC with Tie2 in the presence of GST-Tie2 purified to about 80% homogeneity. The substrate is composed of the SH2-SH3 fragments of PLC expressed in the form of a GST fusion protein.
The kinase activity of Tie2 is measured in a MOPS 20 mM pH 7.2 buffer, containing 10 mM MgCl2, 10 mM MnCl2, 1 mM DTT, 10 mM of glycerophosphate. In a 96-well FlashPlate plate maintained on ice, a reaction mixture is deposited, composed of 70 μL of kinase buffer containing 100 ng of enzyme GST-Tie2 per well. Next, 10 μL of the test molecule diluted in DMSO to a maximum concentration of 10% are added. For a given concentration, each measurement is performed four times. The reaction is initiated by adding 20 μL of solution containing 2 μg of GST-PLC, 2 μm of cold ATP and 1 μCi of ^33P[ATP]. After incubation for one hour at 37° C., the reaction is stopped by adding 1 volume (100 μl) of 200 mM EDTA. After removal of the incubation buffer, the wells are washed three times with 300 μL of PBS. The radioactivity is measured on a MicroBeta1450 Wallac.
The inhibition of the Tie2 activity is calculated and expressed as a percentage of inhibition relative to the control activity determined in the absence of compound.

Structure (SMILES) | IC50 [1] [nM] | IC50 [2] [nM] | IC50 [3] [nM] | IC50 [4] [nM]
CN1CCN(c2ccc(C(=O)Nc3n[nH]c4sc(C(=O)NN(C)Cc5ccccc5)cc34)cc2)CC1 [Example 30, N-[5-(N′-benzyl-N′-methylhydrazinocarbonyl)-1H-thieno[2,3-c]pyrazol-3-yl]-4-(4-methylpiperazin-1-yl)benzamide] | 12 | 6 | 221 | 128
COc1ccc(C(=O)Nc2n[nH]c3sc(C(=O)NN(Cc4ccccc4)c4ccccc4)cc23)cc1 [Example 4, N-[5-(N′-benzyl-N′-phenylhydrazinocarbonyl)-1H-thieno[2,3-c]pyrazol-3-yl]-4-methoxybenzamide] | 6 | 28 | 508 | 115
CN(NC(=O)c1cc2c(NC(=O)c3ccc(CN4CCCC4)cc3)n[nH]c2s1)c1ccc(Cl)cc1 [Example 18b, N-[5-(N′-(4-chlorophenyl)-N′-methylhydrazinocarbonyl)-1H-thieno[2,3-c]pyrazol-3-yl]-4-pyrrolidin-1-ylmethylbenzamide] | 287 | 50 | 96 | 388
COc1ccc(C(=O)Nc2n[nH]c3sc(C(=O)NNc4ccccc4F)cc23)cc1 [Example 6, N-{5-[N′-(2-fluorophenyl)hydrazinocarbonyl]-1H-thieno[2,3-c]pyrazol-3-yl}-4-methoxybenzamide] | 14 | 20 | 579 | 230
CC1CN(Cc2ccc(C(=O)Nc3n[nH]c4sc(C(=O)NN(C)c5ccc(Cl)cc5)cc34)cc2)CC(C)N1 (centres unmarked) [Example 11b, 4-(3,5-dimethylpiperazin-1-ylmethyl)-N-[5-(N′-(4-chlorophenyl)-N′-methylhydrazinocarbonyl)-1H-thieno[2,3-c]pyrazol-3-yl]-benzamide] | 216 | 73 | 77 | 704
CN(NC(=O)c1cc2c(NC(=O)c3cccc(CN4CCOCC4)c3)n[nH]c2s1)c1ccc(Cl)cc1 [Example 22b, N-{5-[N′-(4-chlorophenyl)-N′-methylhydrazinocarbonyl]-1H-thieno[2,3-c]pyrazol-3-yl}-3-morpholin-4-ylmethylbenzamide] | 956 | 762 | 703 | 3190
CC1CN(Cc2ccc(C(=O)Nc3n[nH]c4sc(C(=O)NN(C)c5ccccc5)cc34)cc2)CCN1 (centres unmarked) [Example 14a, N-[5-(N′-methyl-N′-phenylhydrazinocarbonyl)-1H-thieno[2,3-c]pyrazol-3-yl]-4-(3-methylpiperazin-1-ylmethyl)benzamide] | 158 | 19 | 166 | 737
CN(C)CCN(C)Cc1ccc(C(=O)Nc2n[nH]c3sc(C(=O)NN(C)c4ccc(Cl)cc4)cc23)cc1 [Example 20b, N-{5-[N′-(4-chlorophenyl)-N′-methylhydrazinocarbonyl]-1H-thieno[2,3-c]pyrazol-3-yl}-4-{[(2-dimethylaminoethyl)methylamino]methyl}benzamide] | 155 | 75 | 109 | 369
CN1CCCN(c2ccc(C(=O)Nc3n[nH]c4sc(C(=O)NN(C)c5ccccc5)cc34)cn2)CC1 [Example 44, 6-(4-methyl[1,4]diazepan-1-yl)-N-[5-(N′-methyl-N′-phenylhydrazinocarbonyl)-1H-thieno[2,3-c]pyrazol-3-yl]nicotinamide] | 21 | 6 | 201 | 107
CN1CCN(c2ccc(C(=O)Nc3n[nH]c4sc(C(=O)NN(C)c5ccc(Cl)cc5)cc34)cc2)CC1 [Example 28, N-{5-[N′-(4-chlorophenyl)-N′-methylhydrazinocarbonyl]-1H-thieno[2,3-c]pyrazol-3-yl}-4-(4-methylpiperazin-1-yl)benzamide] | 6 | 2 | 132 | 106
CCN(CC)Cc1ccc(C(=O)Nc2n[nH]c3sc(C(=O)NN(C)c4ccc(Cl)cc4)cc23)cc1 [Example 15b, N-{5-[N′-(4-chlorophenyl)-N′-methylhydrazinocarbonyl]-1H-thieno[2,3-c]pyrazol-3-yl}-4-diethylaminomethylbenzamide] | 329 | 37 | 82 | 393
